For data set [1], the system named is Kunming mice. Briefly: Analgesic activity by acetic acid-induced writhing method. The data set is classed as in vivo. As to conditions: for inhibition in vivo at 10 mg/kg: Mus musculus, sc, read-out: Analgesia rate ± SEM (%); for analgesic activity (in words, Table 1): comment on Table 1. As to the method: The experimental animals were Kunming mice (male:female=1:1), weighed 22±2 g, which were provided by Chengdu dossy experimental animals Co., ltd., China. The mice were kept in the animal room of the School of Life Science and Engineering, Southwest Jiaotong University, where the animal room was set at a temperature of 23±2° C., a humidity of 55±5% and a photoperiod of 16:8 h (L:D). Before the experiment, the mice were freely fed for 2-3 days with water and feed to adapt to the new environment. Then, the mice were treated by water fasting for 12 h. 10 animals were allocated to each group to ensure that there are at least 6 sets of valid data in each group. The animal experiments were carried out in strict accordance with the national regulations on the management of experimental animals.
The compounds prepared in the examples provided herein and the positive control lappaconitine were all dissolved with 0.1 mol/L HCl according to the amount of the substance ratio of 1:1, and then diluted with physiological saline to a concentration to be determined. The samples to be tested were the compounds prepared the examples provided herein; the positive control was lappaconitine; and the blank control was physiological saline containing 0.1 mol/L HCl.
The animals in the control groups were subjected to the same treatment as those in the experimental group except that the samples to be test were replaced with physiological saline.
(§1) 10 mice were randomly selected, male:female=1:1, were placed in independent cages. Each mouse was injected subcutaneously with the sample solution mentioned above at a dose of 0.1 mL/10 g body weight. After 15 min, a 0.7% acetic acid solution was intraperitoneally injected. The number of writhing reactions in each mouse within 15 minutes was recorded. The group that the mice were injected with physiological saline subcutaneously was the blank group; the group that the mice were injected with the sample to be tested was the experimental group; and the group that the mice were injected with lappaconitine was the positive group. The analgesic activity was represented by a percentage of the reduced number of writhing compared to the blank group (writhing inhibition rate), which were specifically as follows: writhing inhibition rate (analgesic activity)=(average number of writhing times in the blank group-average number of writhing times in the experimental group)/average number of writhing times in the blank group×100%.
In general terms: Writhing tests count abdominal constrictions after an irritant is injected.

Data set [2] relates to Kunming mice. Put plainly: Median effective dose (ED50) determination, acetic acid-induced writhing. The data set is classed as in vivo. Particulars: for ED50: subcutaneous, writhing inhibition, Probit regression; for analgesic activity / ED50 compared with lappaconitine (in words): comment on Table 2. As for the experimental part:
as §1
The sample to be tested was dissolved with 0.1 mol/L HCl according to the amount of the substance ratio of 1:1, and diluted with physiological saline according to the proportional series to obtain at least 5 groups with different dose concentrations. The writhing inhibition rate of each dose group was tested according to the acetic acid-induced writhing method mentioned above. The obtained does-writhing inhibition data was entered into the statistical product and service solutions (SPSS) software (version 17.2), and the ED50 of the sample to be tested was calculated through the Probit regression method.

The nature of data set [3]: Median lethal dose (LD50) determination. The data set is classed as in vivo, Kunming mice. Particulars: both sexes, Kunming, mouse, in vivo, sc; subcutaneous, survival within 24 h, Probit regression. As to the method:
(§2) The sample to be tested was dissolved with 0.1 mol/L HCl according to the amount of the substance ratio of 1:1, and diluted with physiological saline according to the required concentration. 10 mice in each group were randomly selected, half of which are male and half of which were female, and were placed in independent cages. Each mouse was injected subcutaneously with different sample solutions to be tested according to a dose of 0.1 mL/10 g body weight. In the preliminary toxicity experiment, the measured concentration was 100 mg/kg, and then based on the survival rate of the experimental animals in the preliminary experiment, the sample to be tested was set to at least 5 groups with different concentration dose according to the proportional series. The survival rate of mice within 24 h was recorded. The obtained dose-survival rate data was input into the SPSS software (version 17.2), and the LD50 of the sample was calculated according to the Probit regression method.

For data set [4], the system named is Kunming mice. Briefly: Median lethal dose (LD50) determination. The data set is classed as in vivo. As for the experimental part:
as §2

[5] abbreviates: Mus musculus, sc, read-out: ED50.
[6] abbreviates: Dosing concentration 10 mg/kg, subcutaneous, 15 min before i.p. 0.7% acetic acid, writhing inhibition vs blank group.

Like-named read-outs stand apart in the source and are kept apart here.

What is called ED50 is the dose at which the effect has come halfway, by size or by number of responders. One may read the LD50 as the dose at which mortality reaches 50%. The low end stands for a more toxic substance, the high end for a less toxic substance. For the compound `CCN1C[C@]2(OC(=O)c3ccccc3NS(=O)(=O)c3ccccc3)CC[C@H](OC)C34C2CC([C@@H]13)[C@@]1(O)C[C@H](OC)[C@H]2CC4[C@]1(O)[C@H]2OC` (stereo partly shown) [Compound 1], in data set [1], the inhibition in vivo at 10 mg/kg is 84.3 ± 3.05% and the “analgesic activity (in words, Table 1)” value is “significant activity”. Besides, the ED50 in data set [2] (setting [5]) was 6.1 mg/kg. In addition, in data set [2], the “analgesic activity / ED50 compared with lappaconitine (in words)” value was “same order of magnitude as that of lappaconitine”. This compound also displayed a 50% lethal dose (LD50) in data set [3] of over 600 mg/kg.
For `CCN1C[C@]2(OC(=O)c3ccccc3NS(=O)(=O)c3ccccc3OC)CC[C@H](OC)C34C2CC([C@@H]13)[C@@]1(O)C[C@H](OC)[C@H]2CC4[C@]1(O)[C@H]2OC` (stereo partly shown) [Compound 2], in data set [1], the inhibition in vivo at 10 mg/kg turned out to be 71.2 ± 3.8% and the “analgesic activity (in words, Table 1)” value is “significant activity”. In addition, the ED50 in data set [2] (setting [5]) turned out to be 5.5 mg/kg. Also, in data set [2], the “analgesic activity / ED50 compared with lappaconitine (in words)” value is on record as “same order of magnitude as that of lappaconitine”. In data set [3], this compound returned a 50% lethal dose (LD50) of 300 mg/kg.
Regarding `CCN1C[C@]2(OC(=O)c3ccccc3NS(=O)(=O)c3ccccn3)CC[C@H](OC)C34C2CC([C@@H]13)[C@@]1(O)C[C@H](OC)[C@H]2CC4[C@]1(O)[C@H]2OC` (stereo partly shown) [Compound 3], in data set [1], the inhibition in vivo at 10 mg/kg came to 71.2 ± 2.72% and the “analgesic activity (in words, Table 1)” value is reported as “significant activity”. For the same compound, the ED50 in data set [2] (setting [5]) was found to be 4.7 mg/kg. Also, the “analgesic activity / ED50 compared with lappaconitine (in words)” value in data set [2] is “same order of magnitude as that of lappaconitine”. In data set [3], this compound showed an LD50 of over 400 mg/kg.
Take `CCN1C[C@]2(OC(=O)c3ccccc3NC(=O)OC)CC[C@H](OC)C34C2CC([C@@H]13)[C@@]1(O)C[C@H](OC)[C@H]2CC4[C@]1(O)[C@H]2OC` (stereo partly shown) [Compound 4]: in data set [1], the inhibition in vivo at 10 mg/kg worked out at 71.1 ± 5.97% and the “analgesic activity (in words, Table 1)” value was “significant activity”. For the same compound, in data set [2] (setting [5]), the ED50 was determined as 1.2 mg/kg. The “analgesic activity / ED50 compared with lappaconitine (in words)” value in data set [2] is “doubled compared with lappaconitine”. For the same compound, the 50% lethal dose (LD50) in data set [3] came out at 10 mg/kg. In addition, the “toxicity compared with lappaconitine (in words)” value in data set [4] (comment on Table 2) is reported as “did not increase significantly”.
For the compound `CCN1C[C@]2(OC(=O)c3ccccc3NC(=O)c3ccc(N(C)C)cc3)CC[C@H](OC)C34C2CC([C@@H]13)[C@@]1(O)C[C@H](OC)[C@H]2CC4[C@]1(O)[C@H]2OC` (stereo partly shown) [Compound 5], in data set [1], the inhibition in vivo at 10 mg/kg is 62.1 ± 5.02% and the “analgesic activity (in words, Table 1)” value is “significant activity”. Further, the ED50 in data set [2] (setting [5]) turned out to be 6.1 mg/kg. Besides, the “analgesic activity / ED50 compared with lappaconitine (in words)” value in data set [2] is recorded as “same order of magnitude as that of lappaconitine”. The LD50 in data set [3] was 300 mg/kg.
Regarding `CCN(CC)c1ccc(C(=O)Nc2ccccc2C(=O)O[C@@]23CC[C@H](OC)C45C2CC([C@H]4N(CC)C3)[C@@]2(O)C[C@H](OC)[C@H]3CC5[C@]2(O)[C@H]3OC)cc1` (stereo partly shown) [Compound 30], in data set [1], the inhibition in vivo at 10 mg/kg amounted to 63.9 ± 5.09% and the “analgesic activity (in words, Table 1)” value is on record as “significant activity”. Also, the ED50 in data set [2] (setting [5]) stood at 7.5 mg/kg. For the same compound, the “analgesic activity / ED50 compared with lappaconitine (in words)” value in data set [2] is “same order of magnitude as that of lappaconitine”. Also, the median lethal dose (LD50) in data set [3] worked out at 276 mg/kg.
The corresponding values for `CCOc1ccc(C(=O)Nc2ccccc2C(=O)O[C@@]23CC[C@H](OC)C45C2CC([C@H]4N(CC)C3)[C@@]2(O)C[C@H](OC)[C@H]3CC5[C@]2(O)[C@H]3OC)cc1` (stereo partly shown) [Compound 31] are 62.8 ± 5.41%, “significant activity”, 6.6 mg/kg, “same order of magnitude as that of lappaconitine” and 315 mg/kg.
As for `CCN1C[C@]2(OC(=O)c3ccccc3NC(=O)c3ccc(OC)cc3)CC[C@H](OC)C34C2CC([C@@H]13)[C@@]1(O)C[C@H](OC)[C@H]2CC4[C@]1(O)[C@H]2OC` (stereo partly shown) [Compound 32], in data set [1], the inhibition in vivo at 10 mg/kg is 62.8 ± 5.77% and the “analgesic activity (in words, Table 1)” value is reported as “significant activity”. Further, the ED50 in data set [2] (setting [5]) is 4.4 mg/kg. Besides, the “analgesic activity / ED50 compared with lappaconitine (in words)” value in data set [2] is listed as “same order of magnitude as that of lappaconitine”. Besides, the LD50 in data set [3] amounted to 296 mg/kg.
As to `CCN1C[C@]2(OC(=O)c3ccccc3NC(=O)c3ccc(I)cc3)CC[C@H](OC)C3C2C[C@@H]([C@@H]1C)[C@@]1(O)CC(OC)[C@H]2CC3[C@]1(O)[C@H]2OC` (stereo partly shown) [Compound 43], the inhibition in vivo at 10 mg/kg in data set [1] (setting [6]) worked out at 31.1 ± 8.56%.
The same measure, in the same setting: as for `CCCCc1ccc(C(=O)Nc2ccccc2C(=O)O[C@@]23CC[C@H](OC)C4C2C[C@@H]([C@H](C)N(CC)C3)[C@@]2(O)CC(OC)[C@H]3CC4[C@]2(O)[C@H]3OC)cc1` (stereo partly shown) [Compound 44], the figure is 28.2 ± 7.88%; as for `CCN1C[C@]2(OC(=O)c3ccccc3NC(=O)c3ccc(Cl)s3)CC[C@H](OC)C3C2C[C@@H]([C@@H]1C)[C@@]1(O)CC(OC)[C@H]2CC3[C@]1(O)[C@H]2OC` (stereo partly shown) [Compound 45], 27.8 ± 5.83%; as for `CCc1ccc(C(=O)Nc2ccccc2C(=O)O[C@@]23CC[C@H](OC)C4C2C[C@@H]([C@H](C)N(CC)C3)[C@@]2(O)CC(OC)[C@H]3CC4[C@]2(O)[C@H]3OC)cc1` (stereo partly shown) [Compound 46], 26.7 ± 7.95%.
The same measure, in the same setting: as for `CCN1C[C@]2(OC(=O)c3ccccc3NC(=O)CC(C)(C)C)CC[C@H](OC)C3C2C[C@@H]([C@@H]1C)[C@@]1(O)CC(OC)[C@H]2CC3[C@]1(O)[C@H]2OC` (stereo partly shown) [Compound 47], the figure is 24.9 ± 9.7%; as for `CCN1C[C@]2(OC(=O)c3ccccc3NC(=O)C3CCCO3)CC[C@H](OC)C3C2C[C@@H]([C@@H]1C)[C@@]1(O)CC(OC)[C@H]2CC3[C@]1(O)[C@H]2OC` (stereo partly shown) [Compound 48], 21.8 ± 12.6%.
Consider `CCN1C[C@]2(OC(=O)c3ccccc3NC(=O)c3ccc(C(C)C)cc3)CC[C@H](OC)C3C2C[C@@H]([C@@H]1C)[C@@]1(O)CC(OC)[C@H]2CC3[C@]1(O)[C@H]2OC` (stereo partly shown) [Compound 49], for which, in data set [1] (setting [6]), the inhibition in vivo at 10 mg/kg was determined as 21 ± 6.58%.
Regarding `CCN1C[C@]2(OC(=O)c3ccccc3NC(=O)C3CCOCC3)CC[C@H](OC)C3C2C[C@@H]([C@@H]1C)[C@@]1(O)CC(OC)[C@H]2CC3[C@]1(O)[C@H]2OC` (stereo partly shown) [Compound 50], in data set [1] (setting [6]), the inhibition in vivo at 10 mg/kg is 16.4 ± 8.07%.
Turning to `CCN1C[C@]2(OC(=O)c3ccccc3NC(=O)c3ccc(OC(C)C)cc3)CC[C@H](OC)[C@]34C1[C@H](CC23)[C@@]1(O)C[C@H](OC)[C@H]2CC4[C@]1(O)[C@H]2OC` (stereo partly shown) [Compound 59], in data set [1], the inhibition in vivo at 10 mg/kg came out at 61.1 ± 5.52% and the “analgesic activity (in words, Table 1)” value is on record as “significant activity”. For the same compound, in data set [2] (setting [5]), the median effective dose (ED50) was found to be 8.1 mg/kg. Further, the “analgesic activity / ED50 compared with lappaconitine (in words)” value in data set [2] is recorded as “same order of magnitude as that of lappaconitine”. This compound also showed an LD50 in data set [3] of 196 mg/kg.
For the compound `CCN1C[C@]2(OC(=O)c3ccccc3NC(C)=O)CC[C@H](OC)[C@@]34[C@@H]2C[C@@H]([C@@H]13)[C@@]1(O)C[C@H](OC)[C@H]2C[C@@H]4[C@]1(O)[C@H]2OC` [Lappaconitine], the “Analgesia rate ± SEM (%)” value in data set [1] (Dosing concentration 3.5 mg/kg, subcutaneous, 15 min before i.p. 0.7% acetic acid, writhing inhibition vs blank group) is recorded as 56.57 ± 6.57 %. Further, the “experimental animal death from poisoning” value in data set [1] (dosing concentration of 10 mg/kg) is given as “more than half of the experimental animal death from poisoning”. In addition, the median effective dose (ED50) in data set [2] was found to be 3.5 mg/kg. Also, the LD50 in data set [4] (subcutaneous, survival within 24 h, Probit regression) is 11.7 mg/kg.

The values above are taken from patent publication US11840517B2, “Lappaconitine derivative with analgesic activity, and preparation and application thereof” (priority 2021, dated 2023).
